From US11564928B1, “Cannabinoid receptor type 2 (CB2) modulators and uses thereof” (Teon Therapeutics, Inc., priority 2020, dated 2023)
Where two headings read alike, the source gives them in different places.

Assays:
[1] = biological target: human recombinant CB1R (Homo sapiens (Human), UniProt P21554); assay: CB1 receptor binding assay ([3H]CP-55,940 displacement, HEK-293 membranes)
Method: The compounds were evaluated in CB1R and CB2R binding assays using membranes from HEK-293 cells transfected with cDNAs encoding the human recombinant CB1R (Bmax=[…] protein) and human recombinant CB2R (Bmax=[…] protein) (Perkin-Elmer). […]. Compounds were tested following the procedure described by the cell membrane manufacturer. […] CB2R binding assays were carried out with two different buffers: incubation buffer (Tris-HCl, 50 mM; MgCl2, 5 mM; CaCl2 1 mM; BSA, 0.2% at pH 7.4) and washing buffer (Tris-HCl, 50 mM; NaCl 500 mM; BSA, 0.1% at pH 7.4). […] Assays were performed in duplicate and incubated for […] at 37° C. After the incubation, the assay mixture is filtered through 96 GF/C filter plates (Perkin Elmer #6005174) using Perkin Elmer Filtermate Harvester, and then washed four times with ice-cold washing buffer. The filters are dried for 1 hour at 50° C. and [^3H] trapped on filter counted for radioactivity in Perkin Elmer Microscint 20 cocktail (#6013329) using Perkin Elmer MicroBeta2 Reader. […] Data are analyzed and IC50 is calculated using GraphPad Prism 5 and the model “log(inhibitor) vs. response—Variable slope”. The binding affinity of the compounds is Determined by Using the Cheng and Prusoff Equation Ki=IC50/(1+[radioligand]/Kd).

[2] = biological target: human CB2 receptor (Homo sapiens (Human), UniProt P34972); assay: CB2 receptor binding assay ([3H]CP-55,940 displacement, HEK-293 membranes)
Method: The compounds were evaluated in CB1R and CB2R binding assays using membranes from HEK-293 cells transfected with cDNAs encoding the human recombinant CB1R (Bmax=[…] protein) and human recombinant CB2R (Bmax=[…] protein) (Perkin-Elmer). […] Compounds were tested following the procedure described by the cell membrane manufacturer. […] CB2R binding assays were carried out with two different buffers: incubation buffer (Tris-HCl, 50 mM; MgCl2, 5 mM; CaCl2 1 mM; BSA, 0.2% at pH 7.4) and washing buffer (Tris-HCl, 50 mM; NaCl 500 mM; BSA, 0.1% at pH 7.4). […] Assays were performed in duplicate and incubated for […] at 37° C. […] Data are analyzed and IC50 is calculated using GraphPad Prism 5 and the model “log(inhibitor) vs. response—Variable slope”. The binding affinity of the compounds is Determined by Using the Cheng and Prusoff Equation Ki=IC50/(1+[radioligand]/Kd).

[3] = membranes of HEK-293 cells with human recombinant CB1R, [3H]CP-55,940, class symbols, read-out: CB1 IC50
[4] = membranes of HEK-293 cells with human recombinant CB2R, [3H]CP-55,940, class symbols, read-out: CB2 IC50

Chain of human recombinant CB1R (P21554 whole entry): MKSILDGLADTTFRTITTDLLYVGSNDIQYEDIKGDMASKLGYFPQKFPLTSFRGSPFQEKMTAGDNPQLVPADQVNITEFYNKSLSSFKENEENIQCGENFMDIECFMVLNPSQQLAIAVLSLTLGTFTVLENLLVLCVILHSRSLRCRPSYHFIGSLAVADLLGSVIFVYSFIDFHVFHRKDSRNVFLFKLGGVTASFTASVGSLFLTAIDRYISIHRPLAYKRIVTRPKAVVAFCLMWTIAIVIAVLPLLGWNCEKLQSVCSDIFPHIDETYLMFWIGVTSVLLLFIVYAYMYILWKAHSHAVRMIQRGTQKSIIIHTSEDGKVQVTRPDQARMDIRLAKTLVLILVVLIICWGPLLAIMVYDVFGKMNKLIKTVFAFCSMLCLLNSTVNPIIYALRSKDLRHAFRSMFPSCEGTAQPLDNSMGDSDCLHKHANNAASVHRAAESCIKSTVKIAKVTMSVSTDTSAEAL
Chain of human CB2 receptor (P34972 whole entry): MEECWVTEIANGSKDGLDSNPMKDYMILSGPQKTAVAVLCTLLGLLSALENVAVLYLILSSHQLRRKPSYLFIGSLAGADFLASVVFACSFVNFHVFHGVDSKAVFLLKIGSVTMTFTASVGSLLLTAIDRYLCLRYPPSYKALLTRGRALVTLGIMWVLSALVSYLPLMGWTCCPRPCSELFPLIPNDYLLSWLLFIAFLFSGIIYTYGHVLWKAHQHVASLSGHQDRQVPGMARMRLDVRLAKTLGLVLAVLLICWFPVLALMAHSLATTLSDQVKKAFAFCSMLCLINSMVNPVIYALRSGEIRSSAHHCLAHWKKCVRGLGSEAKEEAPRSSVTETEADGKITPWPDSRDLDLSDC

SMILES | IC50 [1, 3] [nM] | IC50 [2] [nM] | IC50 [2, 4] [nM] | IC50 [1] [nM]
CC(NC(=O)c1c(O)c2cc(Br)cnc2n(Cc2ccc(F)cc2)c1=O)c1ccc(F)cc1 (stereo not shown) [Compound 1, 6-bromo-1-(4-fluorobenzyl)-N-(1-(4-fluorophenyl)ethyl)-4-hydroxy-2-oxo-1,2-dihydro-1,8-naphthyridine-3-carboxamide] | > 1000 | 100 to 999 | – | –
O=C(NC1CC2(CCC2)C1)c1c(O)c2cc(Br)cnc2n(Cc2ccc(F)cc2)c1=O [Compound 2, 6-bromo-1-(4-fluorobenzyl)-4-hydroxy-2-oxo-N-(spiro[3.3]heptan-2-yl)-1,2-dihydro-1,8-naphthyridine-3-carboxamide] | > 1000 | 100 to 999 | – | –
CC(NC(=O)c1c(O)c2cc(Br)cnc2n(Cc2ccc(F)cc2)c1=O)c1ccc(C#N)cc1 (stereo not shown) [Compound 3, 6-bromo-N-(1-(4-cyanophenyl)ethyl)-1-(4-fluorobenzyl)-4-hydroxy-2-oxo-1,2-dihydro-1,8-naphthyridine-3-carboxamide] | > 1000 | 100 to 999 | – | –
O=C(NC1CC2(CCC2)C1)c1c(O)c2cc(Br)cnc2n(CCN2CCOCC2)c1=O [Compound 4, 6-bromo-4-hydroxy-1-(2-morpholinoethyl)-2-oxo-N-(spiro[3.3]heptan-2-yl)-1,2-dihydro-1,8-naphthyridine-3-carboxamide] | – | 100 to 999 | – | –
O=C(NC12CC(C1)C2)c1c(O)c2cc(-c3ccc(OC(F)F)cc3)cnc2n(CCN2CCOCC2)c1=O [Compound 12, N-(bicyclo[1.1.1]pentan-1-yl)-6-(4-(difluoromethoxy)phenyl)-4-hydroxy-1-(2-morpholinoethyl)-2-oxo-1,2-dihydro-1,8-naphthyridine-3-carboxamide] | > 1000 | – | > 1000 | –
O=C(NC1CC2(CCC2)C1)c1c(O)c2cc(-c3ccccc3)cnc2n(CCN2CCOCC2)c1=O [Compound 14, 4-hydroxy-1-(2-morpholinoethyl)-2-oxo-6-phenyl-N-(spiro[3.3]heptan-2-yl)-1,2-dihydro-1,8-naphthyridine-3-carboxamide] | – | – | < 100 | –
CC1CCC(NC(=O)c2c(O)c3cc(-c4ccc(C5CC5)cc4)cnc3n(CCN3CCOCC3)c2=O)CC1 (stereo not shown) [Compound 17, 6-(4-cyclopropylphenyl)-4-hydroxy-N-(4-methylcyclohexyl)-1-(2-morpholinoethyl)-2-oxo-1,2-dihydro-1,8-naphthyridine-3-carboxamide] | > 1000 | 100 to 999 | – | –
CC1CCC(NC(=O)c2c(O)c3cc(-c4ccc(OC(C)C)cc4)cnc3n(CCN3CCOCC3)c2=O)CC1 (stereo not shown) [Compound 18, 4-hydroxy-6-(4-isopropoxyphenyl)-N-(4-methylcyclohexyl)-1-(2-morpholinoethyl)-2-oxo-1,2-dihydro-1,8-naphthyridine-3-carboxamide] | > 1000 | – | > 1000 | –
CC(NC(=O)c1c(O)c2cc(-c3ccc(C#N)cn3)cnc2n(CCN2CCOCC2)c1=O)c1ccc(F)cc1 (stereo not shown) [Compound 21, 6-(5-cyanopyridin-2-yl)-N-(1-(4-fluorophenyl)ethyl)-4-hydroxy-1-(2-morpholinoethyl)-2-oxo-1,2-dihydro-1,8-naphthyridine-3-carboxamide] | > 1000 | 100 to 999 | – | –
N#Cc1ccc(-c2cnc3c(c2)c(O)c(C(=O)NC2CC4(CCC4)C2)c(=O)n3CCN2CCOCC2)nc1 [Compound 22, 6-(5-cyanopyridin-2-yl)-4-hydroxy-1-(2-morpholinoethyl)-2-oxo-N-(spiro[3.3]heptan-2-yl)-1,2-dihydro-1,8-naphthyridine-3-carboxamide] | > 1000 | 100 to 999 | – | –
O=C(NC1CC2(CCC2)C1)c1c(O)c2cc(-c3ccc(F)cc3)ccc2n(CCN2CCOCC2)c1=O [Compound 23, 6-(4-fluorophenyl)-4-hydroxy-1-(2-morpholinoethyl)-2-oxo-N-(spiro[3.3]heptan-2-yl)-1,2-dihydroquinoline-3-carboxamide] | – | – | < 100 | 100 to 999
CC(NC(=O)c1c(O)c2cc(-c3ccc(C#N)cn3)cnc2n(Cc2ccc(F)cc2)c1=O)c1ccc(C#N)cc1 (stereo not shown) [Compound 24, N-(1-(4-cyanophenyl)ethyl)-6-(5-cyanopyridin-2-yl)-1-(4-fluorobenzyl)-4-hydroxy-2-oxo-1,2-dihydro-1,8-naphthyridine-3-carboxamide] | > 1000 | – | > 1000 | –
O=C(NC1CC2(CCC2)C1)c1c(O)c2cc(-c3ccc(OC(F)F)cn3)cnc2n(CCN2CCOCC2)c1=O [Compound 25, 6-(5-(difluoromethoxy)pyridin-2-yl)-4-hydroxy-1-(2-morpholinoethyl)-2-oxo-N-(spiro[3.3]heptan-2-yl)-1,2-dihydro-1,8-naphthyridine-3-carboxamide] | > 1000 | – | > 1000 | –
O=C(NC1CC2(CCC2)C1)c1cc2cc(-c3ccc(OC(F)F)cn3)cnc2n(Cc2ccc(F)cc2)c1=O [Compound 43, 6-(5-(difluoromethoxy)pyridin-2-yl)-1-(4-fluorobenzyl)-2-oxo-N-(spiro[3.3]heptan-2-yl)-1,2-dihydro-1,8-naphthyridine-3-carboxamide] | – | 100 to 999 | – | –
C[C@H](NC(=O)c1cc2cc(-c3ccc(OC(F)F)cn3)cnc2n(CCN2CCOCC2)c1=O)c1ccc(F)cc1 [Compound 49, (S)-6-(5-(difluoromethoxy)pyridin-2-yl)-N-(1-(4-fluorophenyl)ethyl)-1-(2-morpholinoethyl)-2-oxo-1,2-dihydro-1,8-naphthyridine-3-carboxamide] | – | – | 100 to 999 | –
O=C(NC12CC(C1)C2)c1c(O)c2cc(-c3ccc(F)cc3)cnc2n(CCN2CC3CC(C2)O3)c1=O [Compound 165, 1-(2-(6-oxa-3-azabicyclo[3.1.1]heptan-3-yl)ethyl)-N-(bicyclo[1.1.1]pentan-1-yl)-6-(4-fluorophenyl)-4-hydroxy-2-oxo-1,2-dihydro-1,8-naphthyridine-3-carboxamide] | – | – | > 1000 | –
O=C(NC12CC(C1)C2)c1c(O)c2cc(-c3ccc(F)cc3)cnc2n(CCN2C3COCC2C3)c1=O [Compound 166, 1-(2-(3-oxa-6-azabicyclo[3.1.1]heptan-6-yl)ethyl)-N-(bicyclo[1.1.1]pentan-1-yl)-6-(4-fluorophenyl)-4-hydroxy-2-oxo-1,2-dihydro-1,8-naphthyridine-3-carboxamide] | – | – | > 1000 | –
COc1c(C(=O)NC23CC(C2)C3)c(=O)n(CCN2CCOCC2)c2ncc(-c3ccc(F)cc3)cc12 [Compound 173, N-(bicyclo[1.1.1]pentan-1-yl)-6-(4-fluorophenyl)-4-methoxy-1-(2-morpholinoethyl)-2-oxo-1,2-dihydro-1,8-naphthyridine-3-carboxamide] | – | – | > 1000 | –
COc1ccc(-c2cnc3c(c2)c(OC)c(C(=O)NC24CC(C2)C4)c(=O)n3CCN2CCOCC2)cc1 [Compound 177, N-(bicyclo[1.1.1]pentan-1-yl)-4-methoxy-6-(4-methoxyphenyl)-1-(2-morpholinoethyl)-2-oxo-1,2-dihydro-1,8-naphthyridine-3-carboxamide] | – | – | > 1000 | –
COc1ccc(-c2cnc3c(c2)c(OC(C)C)c(C(=O)NC24CC(C2)C4)c(=O)n3CCN2CCOCC2)cc1 [Compound 180, N-(bicyclo[1.1.1]pentan-1-yl)-4-isopropoxy-6-(4-methoxyphenyl)-1-(2-morpholinoethyl)-2-oxo-1,2-dihydro-1,8-naphthyridine-3-carboxamide] | – | – | > 1000 | –
